From paper PMC11836371, “Virtual fragment screening for DNA repair inhibitors in vast chemical space” (Nature Communications, 2025)
pIC50: −log10 of the molar value. “And” between values parts separate entries of the source, which are not always exact repeats. Identical values can stand only once. Like-named read-outs stand apart in the source and are kept apart here.

Columns and labels:
human OGG1 enzyme [1] = molecular target: T1, human OGG1 enzyme (Homo sapiens, UniProt O15527); test: OGG1 glycosylase activity assay (enzyme inhibition, APE1-coupled fluorescence); assay type: biochemical; settings: for IC50: Table S5, ± SD, read-out: pIC50 (converted)
Method: “8” signifies 8-oxoA and “FAM” and “Dab” signify fluorescein and dabcyl (TriLink Biotech). Briefly, compounds dissolved in DMSO were dispensed using an Echo 550 (Labcyte), followed by transfer of enzyme and substrate solutions manually with a 16-channel pipette or with a Multidrop (Thermo Scientific). The plates were centrifuged, sealed and incubated at room temperature overnight (15 h) and read the following morning in an Hidex Sense plate reader (Hidex Oy) using a 485-nm filter with a bandwidth of 10 nm for excitation and a 535-nm filter with a bandwidth of 20 nm for emission.

human OGG1 enzyme [2] = molecular target: T1, human OGG1 enzyme; test: Differential scanning fluorimetry (DSF) thermal shift assay; assay type: binding; settings: 99 μM
Method: The temperature was increased from 20 °C to 85 °C with 10 readings/degree. Tm values were calculated using an excel template and fitting to the Boltzmann equation in Prism v.6.07 (GraphPad Software).

[3] = test system: NF-κB activation in HEK293T pGF NF-κB cells; test: TNF-α induced NF-κB activation assay; assay type: cell-based; settings: Homo sapiens, HEK-293T; NFκB activation assay; ± SD; read-out: pEC50 (converted)
Method: The inhibition of TNF-α induced NF-κB activation was measured in HEK293T cells transfected with the pGreenfire NF-κB plasmid. This is a plasmid that has NF-κB response elements (TRE) coupled to GFP and luciferase expression. When the NF-κB is activated by TNF-α, it binds to the TRE and induces GFP expression, and the fluorescence can be measured in a plate reader. The cells were authenticated with STR profiling, frozen down and these stocks were used in experiments. The HEK293T pGF NF-κB cells were kept in DMEM with 5% FBS and 1% P/S but, when seeded for the assay the medium was changed to DMEM FluoroBrite with 1% dialyzed FBS. All cell culture reagents were purchased from Thermo Fisher Scientific. Compounds were nano-dispensed (Echo acoustic dispenser) in 96-well, black/clear, assay plates (Corning #3904), duplicate plates, in 8-points dose-response curves, 1:2 dilutions, with DMSO compensation (0.3% DMSO). Cells were seeded at 30000 cells/well in medium containing 10 ng/mL of TNF-α (Sigma-Aldrich), except negative control wells which only contained cells in medium. Cells were cultured for 24 hours in a humidified incubator at 37 °C with 5% CO2 after which the GFP fluorescence was measured in a Sense plate reader (Hidex) with ex485/em535. The RFU data from the duplicate plates were combined to calculate % inhibition of NF-κB activation and IC50-values were calculated using XLfit (IDBS). In parallel with the NF-κB assay, a CellTiterGlo (Promega) cell viability assay was run to exclude compounds affecting cell viability. Compounds were nano-dispensed (Echo acoustic dispenser) in assay plates in 11-points dose-response curves, 1:3 dilutions, without DMSO compensation, with duplicates on the same plate. Cells were seeded at 7500 cells/well in 25 µL medium (DMEM FluoroBrite with 1% dialyzed FBS) containing 10 ng/mL TNF-α and cultured for 24 hours, with column 24 containing only culture medium. After equilibration to room temperature, the CellTiterGlo reagents were mixed and 25 µL/well were added to the cell plate. After 2 min mixing of the plate on an orbital shaker, the plate was incubated for 10 min at room temperature followed by luminescence reading in Sense. The cell viability was calculated compared to untreated control wells and the EC50 values were determined in XLfit (IDBS). […]

A2780 cells = test: Cancer cell viability assay (resazurin), A2780; assay type: cell-based; settings: two independent experiments; for percentage cell viability: A2780, 100 μM, 100 µM; for viability at 100 µM: Homo sapiens, A2780, A2780, 100 μM, read-out: percentage cell viability
Method: (§1) Three different cancer cell lines A2780 (ovarian cancer, ECACC 93112519), A549 (lung cancer, ATCC 60150896) and HCT116 (colon cancer, ATCC CCL-247), and one immortalized fibroblast cell line (BJhTERT) as control, were seeded in black/clear 384-well plates (Corning #3764), 50 µL/well, containing 11 concentrations, nano-dispensed, dose-response curves of the test compounds. A2780, HCT116, and HEK293T cell lines were authenticated with STR profiling, frozen down, and these stocks were used in experiments. The A2780 cells were cultured in RPMI 1640, the A549 and BJhTERT cells in DMEM, and the HCT116 cells in McCoys 5 A medium. All media were supplemented with 10% FBS and 1% P/S. All cell culture media, additives, and reagents were purchased from Thermo Fisher Scientific. The cell plates were incubated 72 hours in a humidified incubator at 37 °C with 5% CO2, after which resazurin (Sigma-Aldrich), 10 µL/well, was added to a final concentration of 10 µg/mL. The plates were incubated for 6 hours with resazurin followed by fluorescence readings in a Sense plate reader (Hidex), resorufin protocol (ex 544 nm/em 595 nm). The cell viability was calculated compared to untreated control wells and the EC50 values were determined in XLfit (IDBS).

A549 cells = test: Cancer cell viability assay (resazurin), A549; assay type: cell-based; settings: two independent experiments; for percentage cell viability: A549, 100 μM, 100 µM; for viability at 100 µM: Homo sapiens, A549, A549, 100 μM, read-out: percentage cell viability
Method: as §1

HCT116 cells = test: Cancer cell viability assay (resazurin), HCT116; assay type: cell-based; settings: two independent experiments; for percentage cell viability: HCT116, 100 μM, 100 µM; for viability at 100 µM: Homo sapiens, HCT-116, HCT116, 100 μM, read-out: percentage cell viability
Method: as §1

[4] = Cell viability assay (resazurin), BJhTERT non-transformed control; assay type: cell-based; settings: human, BJhTERT, 100 μM, two independent experiments; read-out: percentage cell viability
Method: (§2) A2780, HCT116, and HEK293T cell lines were authenticated with STR profiling, frozen down, and these stocks were used in experiments. […] All media were supplemented with 10% FBS and 1% P/S. All cell culture media, additives, and reagents were purchased from Thermo Fisher Scientific. The cell plates were incubated 72 hours in a humidified incubator at 37 °C with 5% CO2, after which resazurin (Sigma-Aldrich), 10 µL/well, was added to a final concentration of 10 µg/mL. […] The cell viability was calculated compared to untreated control wells and the EC50 values were determined in XLfit (IDBS).

BJhTERT cells = test: as above; assay type: cell-based; settings: BJhTERT, 100 μM, two independent experiments
Method: as §2

MTH1 = MTH1 (Homo sapiens, UniProt P36639); test: biochemical
Method: Inhibition of the following enzymes was assessed in the selectivity assays: apurinic/apyrimidinic endonuclease (APE1), endonuclease 8-like 1 (NEIL1), oxidized purine nucleoside triphosphate hydrolase (MTH1) and single-strand selective monofunctional uracil DNA glycosylase (SMUG1). BER enzymes were assayed with a similar strategy as OGG1, using identical DNA sequences surrounding the substrate lesion and the same reaction buffer containing 2 nM APE1. To assess SMUG1 inhibition, a 375 nM substrate containing uracil opposite guanine and 0.3 U SMUG1 enzyme (M0336 from New England Biolabs) was used. To assess NEIL1 inhibition, a 20 nM substrate containing thymidine glycol opposite adenine and 10 nM NEIL1 was used. To assess APE1 inhibition, an UNG2 substrate was pre-treated with E. coli Uracil-DNA glycosylase (New England Biolabs M0280) to generate an AP-site opposite adenine, which was used at 10 nM concentration in the presence of 0.1 nM APE1. All BER inhibition assays were in the linear range and less than 40% of the total substrate had been consumed at readout. The experiments were performed in three independent replicates and the percentage inhibition was calculated relative to the signal of a DMSO-treated control. To assess MTH1 inhibition, MTH1-catalyzed dGTP hydrolysis was coupled to inorganic pyrophosphatase (PPase), thereby releasing inorganic phosphate. The produced free phosphate was then detected using the malachite green assay[76]. […] Substrate concentration at the Km value for the respective substrate was chosen if possible. Inhibition using 100 μM compound was tested in reaction buffer (100 mM Tris-Acetate pH 8.0, 10 mM magnesium acetate, 40 mM NaCl, 1 mM DTT, and 0.005% Tween-20). Samples were incubated with shaking at 22 °C for 15 minutes. The reaction was then stopped by the addition of the malachite green reagent[76]. Absorbance was read at 630 nm using a Hidex Sense plate reader after a period of incubation with the methylene green reagent of 15 minutes. The experiment was performed in three independent replicates and percentage inhibition was calculated relative to the signal of a DMSO-treated control.

T1 sequence (O15527 whole entry): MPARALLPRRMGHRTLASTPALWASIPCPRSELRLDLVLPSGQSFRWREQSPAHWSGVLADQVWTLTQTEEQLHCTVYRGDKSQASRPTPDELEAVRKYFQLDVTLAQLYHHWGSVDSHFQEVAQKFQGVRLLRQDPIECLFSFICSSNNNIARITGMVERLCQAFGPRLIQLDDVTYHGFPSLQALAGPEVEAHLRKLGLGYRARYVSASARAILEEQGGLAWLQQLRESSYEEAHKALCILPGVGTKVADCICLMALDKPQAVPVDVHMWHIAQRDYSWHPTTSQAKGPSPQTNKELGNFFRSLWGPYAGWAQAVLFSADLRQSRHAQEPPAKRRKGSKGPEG

Row | Structure (SMILES) | pIC50 (human OGG1 enzyme [1]; Figure 3B source data, three independent experiments, read-out: IC50 OGG1) | IC50 (human OGG1 enzyme [1]) [nM] | ∆Tm (K) (human OGG1 enzyme [2]) | EC50 [3] [µM] | percentage cell viability (A2780 cells) [%] | viability at 100 µM (A2780 cells) [%] | percentage cell viability (A549 cells) [%] | viability at 100 µM (A549 cells) [%] | percentage cell viability (HCT116 cells) [%] | viability at 100 µM (HCT116 cells) [%] | viability at 72 h, 100 µM [4] [%] | percentage cell viability (BJhTERT cells) [%] | pIC50 (MTH1)
1 | Cc1nc(-c2ccc(CC(=O)Nc3noc4c3CCCC4)cc2F)c(C)[nH]1 [compound 18] | 6.23 and 6.20 and 6.21 | 832 | 7.8 | 11.7 | 4.22 | 3.84 | 56.99 | 53.3 | 53.92 | 45.2 | 38.1 | 41.01 | 4.74 and 4.70 and 4.73
2 | Cc1nn(-c2ccc(CC(=O)Nc3noc4c3CCCC4)cc2)c2ccccc12 [compound 10] | – | 1290 | 4.8 ± 0.4 | 6.61 | 1.45 | 0.84 | 6.63 | 5.97 | 2.45 | 2 | 8.08 | 8.77 | –
